Measured values taken from patent US20260337153A1, “IONIZABLE AMINE LIPIDS” (Intellia Therapeutics, Inc., priority 2023, published 2026).

Assay: LNP encapsulation efficiency of RNA (Ribogreen fluorescence assay)
Assay type: physicochemical
Settings: sgRNA:mRNA 1:2
Protocol: LNP compositions are analyzed for average particle size, polydispersity index (pdi), total RNA content, encapsulation efficiency of RNA, and zeta potential. LNP compositions may be further characterized by lipid analysis, AF4-MALS, NTA, and/or cryo-EM.
Encapsulation efficiency is calculated as (Total RNA−Free RNA)/Total RNA. A fluorescence-based assay (Ribogreen®, ThermoFisher Scientific) is used to determine total RNA concentration and free RNA. LNP samples are diluted appropriately with 1×TE buffer containing 0.2% Triton-X 100 to determine total RNA or 1×TE buffer to determine free RNA. Standard curves are prepared by utilizing the starting RNA solution used to make the compositions and diluted in 1×TE buffer+/−0.2% Triton-X 100. Diluted RiboGreen® dye (according to the manufacturer's instructions) is then added to each of the standards and samples and allowed to incubate for approximately 10 minutes at room temperature, in the absence of light. A SpectraMax M5 Microplate Reader (Molecular Devices) is used to read the samples with excitation, auto cutoff and emission wavelengths set to 488 nm, 515 nm, and 525 nm respectively. Total RNA and free RNA are determined from the appropriate standard curves. Alternatively, the total RNA concentration can be determined by a reverse-phase ion-pairing (RP-IP) HPLC method. Triton X-100 is used to disrupt the LNPs, releasing the RNA. The RNA is then separated from the lipid components chromatographically by RP-IP HPLC and quantified against a standard curve using UV absorbance at 260 nm.
In vivo editing efficiency for materials delivered with formulations including various amine lipid (or ionizable lipid) compounds in Experiments 1 through 14 as described in Tables 3 and 4 was assessed. Editing was measured using G000534 (SEQ ID NO: 5) which targets the rat TTR gene. Lipids described above were assessed for efficacy through in vivo editing experiments. LNPs were formulated at a 1:2 w/w ratio of sgRNA (SEQ ID NO: 5) and Cas9 mRNA (SEQ ID NO: 3). In Experiments 1 through 13, lipid components of the LNP are formulated in a molar ratio of 50% ionizable lipid, 38% cholesterol, 9% DSPC, and 3% PEG2K-DMG. In Experiment 14, lipid components of the LNP are formulated in a molar ratio of 50% ionizable lipid, 38% cholesterol, 9% DSPC, and 3% C13 Ether. The final LNPs used in different in vivo editing experiments were characterized to determine the encapsulation efficiency (% E), polydispersity index (PDI), and average particle size (Z-avg and number mean) according to the analytical methods provided above. The pKa values of each of the following ionizable lipids were also measured to be in the range of about 5.8 to about 7.6.
In vivo editing efficiency for materials delivered with formulations including various combinations of amine lipid (or ionizable lipid) and PEG lipid compounds was assessed as described in Tables 5 and 6. Editing was measured using G000534 (SEQ ID NO: 5) which targets the rat TTR gene. Lipids described above were assessed for efficacy through in vivo editing experiments. LNPs were formulated at a 1:2 w/w ratio of sgRNA (SEQ ID NO: 5) and Cas9 mRNA (SEQ ID NO:3). Lipid components of the LNP are formulated in a molar ratio of 50% ionizable lipid, 38% cholesterol, 9% DSPC, and 3% of various PEG lipids (e.g., PEG2K-DMG, C13 Ether, C14 Ether). The final LNPs used in different in vivo editing experiments were characterized to determine the encapsulation efficiency (% E), polydispersity index (PDI), and average particle size (Z-avg and number mean) according to the analytical methods provided above. The pKa values of each of the following ionizable lipids were also measured to be in the range of about 5.8 to about 7.6.
In vivo editing efficiency for materials delivered with formulations including various amine lipid (or ionizable lipid) compounds as described in Tables 7 and 8 was assessed. […]

[1] = Table 3, Experiments 1-13, LNP 50% ionizable lipid, 38% cholesterol, 9% DSPC, 3% PEG2K-DMG
[2] = LNP with 50% ionizable lipid, 38% cholesterol, 9% DSPC, 3% C13 Ether (LNP #1, Compound 53: 3% PEG2K-DMG instead)
[3] = Table 3, Experiment 14, LNP with 3% C13 Ether

Structure (SMILES): CCCCCCCCC(CCCCCCCC)OC(=O)CCCC(=O)OCC(COC(=O)CCCC(=O)OC(CCCCCCCC)CCCCCCCC)COC(=O)NCCN1CCCC1 [Compound 29, di(heptadecan-9-yl) O,O′-(2-((((2-(pyrrolidin-1-yl)ethyl)carbamoyl)oxy)methyl)propane-1,3-diyl) diglutarate]
- % E (encapsulation efficiency) [1]: 100%

Structure (SMILES): CCCCCCCCC(CCCCCCCC)OC(=O)CCCC(=O)OCC(COC(=O)CCCC(=O)OC(CCCCCCCC)CCCCCCCC)COC(=O)OCCCN(C)CC [Compound 30, O,O′-(2-((((3-(ethyl(methyl)amino)propoxy)carbonyl)oxy)methyl)propane-1,3-diyl) di(heptadecan-9-yl) diglutarate]
- % E (encapsulation efficiency) [1]: 99%

Structure (SMILES): CCCCCCCCC(CCCCCCCC)OC(=O)CCCC(=O)OCC(COC(=O)CCCC(=O)OC(CCCCCCCC)CCCCCCCC)COC(=O)OCCCN(C)C [Compound 31, O,O′-(2-((((3-(dimethylamino)propoxy)carbonyl)oxy)methyl)propane-1,3-diyl) di(heptadecan-9-yl) diglutarate]
- % E (encapsulation efficiency) [1]: 100%

Structure (SMILES): CCCCCCCCC(CCCCCCCC)OC(=O)CCCC(=O)OCC(COC(=O)CCCC(=O)OC(CCCCCCCC)CCCCCCCC)COC(=O)OCCCN1CCCCC1 [Compound 32, di(heptadecan-9-yl) O,O′-(2-((((3-(piperidin-1-yl)propoxy)carbonyl)oxy)methyl)propane-1,3-diyl) diglutarate]
- % E (encapsulation efficiency) [1]: 99%

Structure (SMILES): CCCCCCCCC(CCCCCCCC)OC(=O)CCCC(=O)OCC(COC(=O)CCCC(=O)OC(CCCCCCCC)CCCCCCCC)COC(=O)OCCCN1CCCC1 [Compound 33, di(heptadecan-9-yl) O,O′-(2-((((3-(pyrrolidin-1-yl)propoxy)carbonyl)oxy)methyl)propane-1,3-diyl) diglutarate]
- % E (encapsulation efficiency) [2]: 99%
- % E (encapsulation efficiency) [1]: 100%

Structure (SMILES): CCCCCCCCC(CCCCCCCC)OC(=O)CCCC(=O)OCC(COC(=O)CCCC(=O)OC(CCCCCCCC)CCCCCCCC)COC(=O)CCCN(C)C [Compound 34, O,O′-(2-(((4-(dimethylamino)butanoyl)oxy)methyl)propane-1,3-diyl) di(heptadecan-9-yl) diglutarate]
- % E (encapsulation efficiency) [3]: 98%

Structure (SMILES): CCCCCCCCC(CCCCCCCC)OC(=O)CCCC(=O)OCC(COC(=O)CCCC(=O)OC(CCCCCCCC)CCCCCCCC)OC(=O)NCCN(CC)CC [Compound 35, O,O′-(2-(((2-(diethylamino)ethyl)carbamoyl)oxy)propane-1,3-diyl) di(heptadecan-9-yl) diglutarate]
- % E (encapsulation efficiency) [3]: 99%

Structure (SMILES): CCCCCCCCC(CCCCCCCC)OC(=O)CCCC(=O)OCC(C)(COC(=O)CCCC(=O)OC(CCCCCCCC)CCCCCCCC)COC(=O)NCCN(CC)CC [Compound 36, O,O′-(2-((((2-(diethylamino)ethyl)carbamoyl)oxy)methyl)-2-methylpropane-1,3-diyl) di(heptadecan-9-yl) diglutarate]
- % E (encapsulation efficiency) [1]: 98%

Structure (SMILES): CCCCCCC(CCCCCC)OC(=O)CCCC(=O)OCC(COC(=O)CCCC(=O)OC(CCCCCC)CCCCCC)COC(=O)NCCN(CC)CC [Compound 37, O,O′-(2-((((2-(diethylamino)ethyl)carbamoyl)oxy)methyl)propane-1,3-diyl) di(tridecan-7-yl) diglutarate]
- % E (encapsulation efficiency) [1]: 99%

Structure (SMILES): CCCCCCCCC(CCCCCCCC)C(=O)OCC(COC(=O)NCCN(CC)CC)COC(=O)C(CCCCCCCC)CCCCCCCC [Compound 40, 2-((((2-(diethylamino)ethyl)carbamoyl)oxy)methyl)propane-1,3-diyl bis(2-octyldecanoate)]
- % E (encapsulation efficiency) [3]: 92%

Structure (SMILES): CCCCCCCCCCCC(=O)OCC(COC(=O)CCC(OCCCCCCCC)OCCCCCCCC)COC(=O)OCCCN(CC)CC (stereo not drawn) [Compound 41, 3-((4,4-bis(octyloxy)butanoyl)oxy)-2-((((3-(diethylamino)propoxy)carbonyl)oxy)methyl)propyl Dodecanoate]
- % E (encapsulation efficiency) [1]: 98%

Structure (SMILES): CCCCCCCCOC(CCC(=O)OCC(COC(=O)CC(CCCC)CCCCCC)COC(=O)OCCCN(CC)CC)OCCCCCCCC (stereo not drawn) [Compound 43, 3-((4,4-bis(octyloxy)butanoyl)oxy)-2-((((3-(diethylamino)propoxy)carbonyl)oxy)methyl)propyl 3-butylnonanoate]
- % E (encapsulation efficiency) [1]: 98%

Structure (SMILES): CCCCCCCCOC(CCC(=O)OCC(COC(=O)NCCN(CC)CC)COC(=O)C(CCCC)CCCCCC)OCCCCCCCC (stereo not drawn) [Compound 48, 3-((4,4-bis(octyloxy)butanoyl)oxy)-2-((((2-(diethylamino)ethyl)carbamoyl)oxy)methyl)propyl 2-butyloctanoate]
- % E (encapsulation efficiency) [1]: 94%

Structure (SMILES): CCCCC/C=C\C/C=C\CCCCCCCC(=O)OCC(COC(=O)CCCC(=O)OC(CCCCCCCC)CCCCCCCC)COC(=O)N(C)CCN(CC)CC (stereo not drawn) [Compound 49, 3-(((2-(diethylamino)ethyl)(methyl)carbamoyl)oxy)-2-((((9Z,12Z)-octadeca-9,12-dienoyl)oxy)methyl)propyl heptadecan-9-yl Glutarate]
- % E (encapsulation efficiency) [1]: 97%

Structure (SMILES): CCCCC/C=C\C/C=C\CCCCCCCC(=O)OCC(COC(=O)CCCC(=O)OC(CCCCCCCC)CCCCCCCC)COC(=O)NCCN1CCCCCC1 (stereo not drawn) [Compound 50, 3-(((2-(azepan-1-yl)ethyl)carbamoyl)oxy)-2-((((9Z,12Z)-octadeca-9,12-dienoyl)oxy)methyl)propyl heptadecan-9-yl Glutarate]
- % E (encapsulation efficiency) [1]: 98%

Structure (SMILES): CCCCCCCCC(CCCCCCCC)OC(=O)CCCCCC(=O)OCC(CCCCCCCCC(=O)OCC(CCCC)CCCCCC)COC(=O)NCCN(CC)CC (stereo not drawn) [Compound 51, 1-(11-((2-butyloctyl)oxy)-2-((((2-(diethylamino)ethyl)carbamoyl)oxy)methyl)-11-oxoundecyl) 7-(heptadecan-9-yl) heptanedioate]
- % E (encapsulation efficiency) [1]: 99%

Structure (SMILES): CCCCCCCCC(CCCCCCCC)OC(=O)CCCCCCC(=O)OCC(COC(=O)CCCCCCC(=O)OC(CCCCCCCC)CCCCCCCC)COC(=O)NCCN(CC)CC [Compound 52, O′1,O1-(2-((((2-(diethylamino)ethyl)carbamoyl)oxy)methyl)propane-1,3-diyl) 8,8′-di(heptadecan-9-yl) di(octanedioate)]
- % E (encapsulation efficiency) [2]: 97%
- % E (encapsulation efficiency) [1]: 97%
- % E (encapsulation efficiency) (Table 7, LNP with 3% C13 Ether): 97%

Structure (SMILES): CCCCCCCCCOC(=O)CCCCCCCN(CCO)CCCCCCCC(=O)OC(CCCCCCCC)CCCCCCCC [Compound 55]
- % E (encapsulation efficiency) [1]: 84%

Structure (SMILES): CCCCCCCCC(CCCCCCCC)OC(=O)CCCCCCC(=O)OCC(COC(=O)CCCCCCC(=O)OC(CCCCCCCC)CCCCCCCC)COC(=O)OCCCN(CC)CC [Compound 60]
- % E (encapsulation efficiency) [1]: 97%
- % E (encapsulation efficiency) (Table 5, PEG lipid C13 Ether): 95%
- % E (encapsulation efficiency) (Table 5, PEG lipid C14 Ether): 96%
- % E (encapsulation efficiency) (Table 5, PEG lipid PEG2K-DMG): 96%

Structure (SMILES): CCCCCCCCC(CCCCCCCC)OC(=O)CCCCCCC(=O)OCC(COC(=O)CCCCCCC(=O)OC(CCCCCCCC)CCCCCCCC)COC(=O)NCCCN(CC)CC [Compound 61]
- % E (encapsulation efficiency) [1]: 100%

Structure (SMILES): CCCCCCCCC(CCCCCCCC)CC(=O)OCCC(=O)OCC(COC(=O)CCCC(=O)OC(CCCCCCCC)CCCCCCCC)COC(=O)NCCN(CC)CC (stereo not drawn) [Compound 63, 3-(((2-(diethylamino)ethyl)carbamoyl)oxy)-2-(((3-((3-octylundecanoyl)oxy)propanoyl)oxy)methyl)propyl heptadecan-9-yl Glutarate]
- % E (encapsulation efficiency) (Table 7, LNP with 3% C13 Ether): 96%
